Measured values taken from patent publication US20260365634A1, “HERBICIDAL PYRAZOLE COMPOUNDS” (SYNGENTA CROP PROTECTION AG, priority 2022, published 2026).

What was measured:
Format in all cases: in vivo
Conditions in all cases: 250 g/ha, evaluated after 13 days
[1] = test system: Amaranthus palmeri (AMAPA); assay: Post-emergence herbicidal glasshouse test
Protocol: (§1) Seeds of a variety of test species are sown in standard soil in pots Amaranthus palmeri (AMAPA), Amaranthus retoflexus (AMARE), Echinochloa crus-galli (ECHCG), Ipomoea hederacea (IPOHE), Setaria faberi (SETFA). After cultivation for one day (pre-emergence) or after 8 days cultivation (post-emergence) under controlled conditions in a glasshouse (at 24/16 °C, day/night; 14 hours light; 65% humidity), the plants are sprayed with an aqueous spray solution derived from the formulation of the technical active ingredient in acetone/water (50:50) solution containing 0.5% Tween 20 (polyoxyethelyene sorbitan monolaurate, CAS RN 9005-64-5). Compounds are applied at 250 g/ha unless otherwise stated. The test plants are then grown in a glasshouse under controlled conditions in a glasshouse (at 24/16 °C, day/night; 14 hours light; 65% humidity) and watered twice daily. After 13 days for pre and post-emergence, the test is evaluated for the percentage damage caused to the plant. The biological activities are shown in the following table on a five-point scale (5=81-100%; 4=61-80%; 3=41-60%; 2=21-40%; 1=0-20%).

[2] = test system: Amaranthus retoflexus (AMARE); assay: Post-emergence herbicidal glasshouse test
Protocol: as §1

[3] = test system: Echinochloa crus-galli (ECHCG); assay: Post-emergence herbicidal glasshouse test
Protocol: as §1

[4] = test system: Ipomoea hederacea (IPOHE); assay: Post-emergence herbicidal glasshouse test
Protocol: as §1

[5] = test system: Setaria faberi (SETFA); assay: Post-emergence herbicidal glasshouse test
Protocol: as §1

[6] = test system: Amaranthus palmeri (AMAPA); assay: Pre-emergence herbicidal glasshouse test
Protocol: as §1

[7] = test system: Amaranthus retoflexus (AMARE); assay: Pre-emergence herbicidal glasshouse test
Protocol: as §1

[8] = test system: Echinochloa crus-galli (ECHCG); assay: Pre-emergence herbicidal glasshouse test
Protocol: as §1

[9] = test system: Ipomoea hederacea (IPOHE); assay: Pre-emergence herbicidal glasshouse test
Protocol: as §1

[10] = test system: Setaria faberi (SETFA); assay: Pre-emergence herbicidal glasshouse test
Protocol: as §1

Row | Structure (SMILES) | percentage damage caused to the plant (five-point scale), AMAPA [1] | percentage damage caused to the plant (five-point scale), AMARE [2] | percentage damage caused to the plant (five-point scale), ECHCG [3] | percentage damage caused to the plant (five-point scale), IPOHE [4] | percentage damage caused to the plant (five-point scale), SETFA [5] | percentage damage caused to the plant (five-point scale), AMAPA [6] | percentage damage caused to the plant (five-point scale), AMARE [7] | percentage damage caused to the plant (five-point scale), ECHCG [8] | percentage damage caused to the plant (five-point scale), IPOHE [9] | percentage damage caused to the plant (five-point scale), SETFA [10]
1 | FC(F)CCn1nc(C(F)F)cc1Cc1ncc(Cl)cn1 [Compound 1.008] | 3 (41-60%) | 3 (41-60%) | 1 (0-20%) | 4 (61-80%) | 1 (0-20%) | 5 (81-100%) | 5 (81-100%) | 4 (61-80%) | 3 (41-60%) | 4 (61-80%)
2 | FC(F)(F)CCn1nc(C(F)(F)F)cc1Cc1ncc(Cl)cn1 [Compound 1.010] | 4 (61-80%) | 5 (81-100%) | 4 (61-80%) | 3 (41-60%) |  | 5 (81-100%) | 5 (81-100%) | 5 (81-100%) | 5 (81-100%) | 
3 | CCCCn1nc(C(F)F)cc1Cc1ncc(Cl)cn1 [Compound 1.011] | 2 (21-40%) | 2 (21-40%) | 1 (0-20%) | 2 (21-40%) |  | 5 (81-100%) | 5 (81-100%) | 2 (21-40%) | 3 (41-60%) | 
4 | CCCCn1nc(C(F)F)cc1Cc1ncc(Cl)cc1F [Compound 1.013] | 2 (21-40%) | 2 (21-40%) | 1 (0-20%) | 2 (21-40%) | 1 (0-20%) | 3 (41-60%) | 4 (61-80%) | 3 (41-60%) | 2 (21-40%) | 3 (41-60%)
5 | Fc1cc(Cl)cnc1Cc1cc(C(F)(F)F)nn1CCC(F)(F)F [Compound 1.018] | 4 (61-80%) | 1 (0-20%) | 4 (61-80%) | 4 (61-80%) | 4 (61-80%) | 5 (81-100%) | 5 (81-100%) | 5 (81-100%) | 3 (41-60%) | 5 (81-100%)
6 | CC(C)(C#N)CCCn1nc(C(F)(F)F)cc1Cc1ncc(Cl)cn1 [Compound 1.019] | 1 (0-20%) | 1 (0-20%) | 1 (0-20%) | 1 (0-20%) | 1 (0-20%) | 1 (0-20%) | 1 (0-20%) | 1 (0-20%) | 1 (0-20%) | 1 (0-20%)
7 | CCCCn1nc(C(F)(F)Cl)cc1Cc1ncc(Cl)cn1 [Compound 1.020, 2-[[2-butyl-5-[chloro(difluoro)methyl]pyrazol-3-yl]methyl]-5-chloro-pyrimidine] | 4 (61-80%) | 5 (81-100%) | 2 (21-40%) | 2 (21-40%) | 1 (0-20%) | 5 (81-100%) | 5 (81-100%) | 4 (61-80%) | 2 (21-40%) | 4 (61-80%)
